In patent US12377110B2, “Fospropofol methods and compositions” (Epalex Corporation, priority 2019, dated 2025):

Experiments:
[1] = Study No. 15-3 toxicokinetics of fospropofol and propofol in plasma; assay type: in vivo, Sprague-Dawley rats; conditions: for AUC(0-t) / Cmax / Tmax: Sprague-Dawley, rat, plasma, po, oral gavage fospropofol disodium; for AUC(0-t): read-out: Fospropofol AUC0-6 hr; for Cmax: read-out: Fospropofol Cmax; for Tmax: read-out: Fospropofol Tmax
Experimental: The purpose of Study No. 15-3 (GLP) was to determine the potential toxicity of fospropofol in Sprague-Dawley rats when administered once daily by oral gavage for 14 days. […] The cause of death for the three 250 mg/kg/day group main study females found dead could not be determined, but was considered related to the pharmacodynamic effects of fospropofol, based on the time of death relative to the time of close administration, and the clinical signs recorded before death. Clinical observations during the closing period for these animals included labored breathing, prostrate, splayed hindlimbs, uncoordinated movement, decreased activity, and eyes closed.

[2] = Study No. 15-4 toxicokinetics of fospropofol and propofol in plasma; assay type: in vivo, Beagle dogs; conditions: for Tmax: read-out: Fospropofol Tmax; for AUC(0-t): read-out: Fospropofol AUC0-6 hr
Experimental: The purpose of Study No. 15-4 (GLP) was to determine the potential toxicity of fospropofol in Beagle dogs when administered once daily by oral gavage for 14 days. […] Because the treatment-related clinical observations (consistent with the expected transient sedative actions of fospropofol) and effects on hematology and clinical chemistry parameters were considered nonadverse, the NOAEL was determined to be 160 mg/kg/day (3200 mg/m^2/day).

[3] = female, 50 mg/kg, Female, 50 mg/kg, Day 1
[4] = female, 50 mg/kg, Female, 50 mg/kg, Day 14
[5] = female, 100 mg/kg, Female, 100 mg/kg, Day 1
[6] = female, 100 mg/kg, Female, 100 mg/kg, Day 14
[7] = female, 250 mg/kg, Female, 250 mg/kg, Day 1
[8] = female, 250 mg/kg, Female, 250 mg/kg, Day 14
[9] = male, 50 mg/kg, Male, 50 mg/kg, Day 1
[10] = male, 50 mg/kg, Male, 50 mg/kg, Day 14
[11] = male, 100 mg/kg, Male, 100 mg/kg, Day 1
[12] = male, 100 mg/kg, Male, 100 mg/kg, Day 14
[13] = male, 250 mg/kg, Male, 250 mg/kg, Day 1
[14] = male, 250 mg/kg, Male, 250 mg/kg, Day 14
[15] = female, beagle, dog, plasma, po, 50 mg/kg, oral gavage fospropofol disodium, Female, 50 mg/kg, Day 1
[16] = female, beagle, dog, plasma, po, 50 mg/kg, oral gavage fospropofol disodium, Female, 50 mg/kg, Day 14
[17] = female, beagle, dog, plasma, po, 100 mg/kg, oral gavage fospropofol disodium, Female, 100 mg/kg, Day 1

CC(C)c1cccc(C(C)C)c1OCOP(=O)(O)O [fospropofol, (2,6-diisopropylphenoxy)methyl dihydrogen phosphate]
Increase of fospropofol Cmax and AUC0-6hr with dose ([1]; 50, 100, and 250 mg/kg/day, Day 1 and Day 14): greater than close-proportional
AUC(0-t) [1, 3]: 166 ng·h/mL
Cmax [1, 3]: 582 ng/mL
Tmax [1, 3]: 4.98 min
AUC(0-t) [1, 4]: 160 ng·h/mL
Cmax [1, 4]: 341 ng/mL
Tmax [1, 4]: 15 min
AUC(0-t) [1, 5]: 827 ng·h/mL
Cmax [1, 5]: 1630 ng/mL
Tmax [1, 5]: 4.98 min
AUC(0-t) [1, 6]: 1170 ng·h/mL
Cmax [1, 6]: 2560 ng/mL
Tmax [1, 6]: 4.98 min
AUC(0-t) [1, 7]: 4630 ng·h/mL
Cmax [1, 7]: 8400 ng/mL
Tmax [1, 7]: 4.98 min
AUC(0-t) [1, 8]: 3810 ng·h/mL
Cmax [1, 8]: 8440 ng/mL
Tmax [1, 8]: 4.98 min
Fospropofol AUC0-6hr following repeated administration ([1]; male and female rats): did not appear to change
AUC(0-t) [1, 9]: 97.1 ng·h/mL
Cmax [1, 9]: 178 ng/mL
Tmax [1, 9]: 4.98 min
AUC(0-t) [1, 10]: 96.9 ng·h/mL
Cmax [1, 10]: 149 ng/mL
Tmax [1, 10]: 4.98 min
AUC(0-t) [1, 11]: 386 ng·h/mL
Cmax [1, 11]: 930 ng/mL
Tmax [1, 11]: 4.98 min
AUC(0-t) [1, 12]: 370 ng·h/mL
Cmax [1, 12]: 1360 ng/mL
Tmax [1, 12]: 4.98 min
AUC(0-t) [1, 13]: 3720 ng·h/mL
Cmax [1, 13]: 8510 ng/mL
Tmax [1, 13]: 4.98 min
AUC(0-t) [1, 14]: 2130 ng·h/mL
Cmax [1, 14]: 5020 ng/mL
Tmax [1, 14]: 4.98 min
Dependence of systemic exposure on sex ([1]; rats, 14 days oral gavage fospropofol disodium): greater exposure in females
Sex differences in fospropofol Cmax or AUC0-6h ([2]; 50, 100, and 160 mg/kg/day for 14 days): no clear sex differences
Tmax ([2]; Beagle, dog, plasma, oral, range over all groups): 5 to 60 min
Increase of fospropofol Cmax and AUC0-6hr with dose ([2]; Days 1 and 14, males and females (except females on Day 14)): less than close proportional
half-life ([2]; both sexes, Beagle, dog, plasma, oral, males and females, read-out: Fospropofol apparent individual terminal half-lives): 18 to 36 min
Cmax [2, 15]: 3680 ng/mL
AUC(0-t) [2, 15]: 4710 ng·h/mL
Tmax [2, 15]: 30 to 60 min
Cmax [2, 16]: 3770 ng/mL
AUC(0-t) [2, 16]: 5730 ng·h/mL
Tmax [2, 16]: 30 to 60 min
Cmax [2, 17]: 10100 ng/mL
AUC(0-t) [2, 17]: 11900 ng·h/mL
Tmax [2, 17]: 15 to 30 min
